This note sets out measurements from patent publication US20180092866A1, “SUBSTITUTED N-([1,1'-BIPHENYL]-3-YL)-[1,1'-BIPHENYL]-3-CARBOXAMIDE ANALOGS AS INHIBITORS FOR BETA-CATENIN/B-CELL LYMPHOMA 9 INTERACTIONS” (University of Utah Research Foundation, priority 2015, published 2018).

Each structure is given as a SMILES string. Structures can show the parent of a compound that is named as a salt.

One assay deals with T1, β-catenin/BCL9 protein-protein interactions (Homo sapiens, UniProt P35222).
T1 construct: C-terminally His6-tagged wild-type or mutant β-catenin (residues 138-686) proteins; made in house; host or cells: E. coli BL21 DE3
T1 sequence (P35222 138-686): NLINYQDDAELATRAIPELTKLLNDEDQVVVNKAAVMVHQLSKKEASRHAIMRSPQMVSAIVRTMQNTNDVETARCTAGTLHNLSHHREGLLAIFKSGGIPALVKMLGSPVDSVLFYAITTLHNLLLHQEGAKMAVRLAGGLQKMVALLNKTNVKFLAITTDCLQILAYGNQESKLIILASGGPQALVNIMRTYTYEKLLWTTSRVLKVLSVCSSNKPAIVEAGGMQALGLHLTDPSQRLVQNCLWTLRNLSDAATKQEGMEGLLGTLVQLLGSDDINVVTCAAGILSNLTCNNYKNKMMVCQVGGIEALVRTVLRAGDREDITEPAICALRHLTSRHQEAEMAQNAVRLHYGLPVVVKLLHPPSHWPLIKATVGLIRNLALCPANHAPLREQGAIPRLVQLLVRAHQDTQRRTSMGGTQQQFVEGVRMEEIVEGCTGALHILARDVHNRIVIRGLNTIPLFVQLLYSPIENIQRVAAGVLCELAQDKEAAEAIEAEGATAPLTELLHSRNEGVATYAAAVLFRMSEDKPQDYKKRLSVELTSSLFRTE
Description: AlphaScreen competitive inhibition assay, wild-type β-catenin/BCL9. The assay is classed as binding. To be noted: AlphaScreen assay, comparison with named compound. As to the method: The purity of the wild-type and mutant β-catenin proteins was all greater than 95% as determined by the SDS-PAGE gel analysis. Both the wild-type and mutant β-catenin proteins are stable under the testing conditions. Native non-denaturing gel electrophoresis was performed to confirm the homogeneity of the purified proteins. Experiments were performed in white opaque 384-well plates from PerkinElmer, and the samples were read on a Synergy 2 plate reader (Biotek) with a sensitivity setting of 200 using AlphaScreen protocol with excitation at 680 nm and emission at 570 nm. All dilutions were made in 1×assay buffer containing 25 mM HEPES (pH=7.0), 100 mM NaCl, 0.01% Triton X-100, and 0.1% BSA. In the AlphaScreen competitive inhibition assay, 40 nM of C-terminally His6-tagged wild-type or mutant β-catenin (residues 138-686) proteins was incubated with 5 nM of N-terminal biotinylated human BCL9 26-mer (residues 350-375) for 30 min at 4° C., and then different concentrations of the tested inhibitors in the assay buffer were added to make a final volume of 20 μL. The mixture was incubated at 4° C. for 2 h. The donor and acceptor beads were added to a final concentration of 10 μg/mL in 25 μL of assay buffer. The mixture was incubated at 4° C. for 1 h. The IC50 value was determined by nonlinear least-square analysis of GraphPad Prism 5.0. […] The Ki values were derived from the IC50 values by a reported method (Nikolovska-Coleska et al. (2004) Anal. Biochem. […]: 261-273). Experiments were performed in triplicate and carried out in the presence of 1% DMSO.
`Cl.Cl.NCCOc1ccc(NC(=O)c2ccc(OCCN)c(-c3ccc(F)c(F)c3)c2)cc1-c1ccc(F)cc1` [Compound 17, 2-((5-(6-(2-Ammonioethoxy)-3′,4′-difluoro-[1,1′-biphenyl]-3-ylcarboxamido)-4′-fluoro-[1,1′-biphenyl]-2-yl)oxy) ethanaminium chloride]: the “relative inhibitory potency for β-catenin/BCL9 PPIs (in words)” value was “more potent than 9 and 13”. The same measure, in the same setting: with `Cl.NCCOc1ccc(C(=O)Nc2cccc(-c3ccc(F)cc3)c2)cc1-c1ccc(F)cc1` [Compound 9, 2-((4′-Fluoro-5-((4′-fluoro-[1,1′-biphenyl]-3-yl)carbamoyl)-[1,1′-biphenyl]-2-yl)oxy) ethanaminium chloride] the entry was “higher potency than 14”.

The same assay, now with this note: AlphaScreen assay, relative to compound 17.
Take `O=C(Nc1ccc(OCCO)c(-c2ccc(F)cc2)c1)c1ccc(OCCO)c(-c2ccc(F)c(F)c2)c1` [Compound 18, 3′,4′-Difluoro-N-(4′-fluoro-6-(2-hydroxyethoxy)-[1,1′-biphenyl]-3-yl)-6-(2-hydroxyethoxy)-[1,1′-biphenyl]-3-carboxamide]: the “fold less potent than 17” value is on record as 6 fold. Same read-out and setting: with `Cc1ccc(NC(=O)c2ccc(C)c(-c3ccc(F)c(F)c3)c2)cc1-c1ccc(F)cc1` [Compound 19, 3′,4′-Difluoro-N-(4′-fluoro-6-methyl-[1,1′-biphenyl]-3-yl)-6-methyl-[1,1′-biphenyl]-3-carboxamide] the figure was 65 fold.

Still in this assay, the particulars now being: wild-type β-catenin (residues 138-686)/biotinylated BCL9 26-mer; Ki derived from IC50; mean ± SD.
`O=C(Nc1ccc(OC2CNC2)c(-c2ccc(F)cc2)c1)c1ccc(OC2CNC2)c(-c2ccc(F)c(F)c2)c1` [Compound 22, 3-((5-(6-(azetidin-1-ium-3-yloxy)-3′,4′-difluoro-[1,1′-biphenyl]-3-ylcarboxamido)-4′-fluoro-[1,1′-biphenyl]-2-yl)oxy)azetidin-1-ium chloride]: the inhibition constant Ki is 17 ± 1.99 µM. Still for that read-out and setting: the figure for `O=C(Nc1ccc(OCCO)c(-c2ccc(F)cc2)c1)c1ccc(OCCO)c(-c2ccc(F)c(F)c2)c1` [Compound 18, 3′,4′-Difluoro-N-(4′-fluoro-6-(2-hydroxyethoxy)-[1,1′-biphenyl]-3-yl)-6-(2-hydroxyethoxy)-[1,1′-biphenyl]-3-carboxamide] is 36.8 ± 2.72 µM. Take `O=C(Nc1ccc(O[C@H]2CCNC2)c(-c2ccc(F)cc2)c1)c1ccc(O[C@H]2CCNC2)c(-c2ccc3ccsc3c2)c1` [Compound 97]: the Ki is 9.5 ± 1.12 µM. Turning to `Cc1ccc(-c2cc(NC(=O)c3ccc(O[C@H]4CCNC4)c(-c4ccc(F)c(F)c4)c3)ccc2O[C@H]2CCNC2)cc1` [Compound 91c, 3′,4′-Difluoro-N-(4′-methyl-6-((S)-pyrrolidin-3-yloxy)-[1,1′-biphenyl]-3-yl)-6-((S)-pyrrolidin-3-yloxy)-[1,1′-biphenyl]-3-carboxamide dihydrochloride], the Ki worked out at 41.4 ± 9.16 µM. For `O=C(Nc1ccc(O[C@@H]2CCNC2)c(-c2ccc(F)cc2)c1)c1ccc(O[C@@H]2CCNC2)c(-c2ccc(F)c(F)c2)c1` [Compound 26, (R)-3-((3′,4′-difluoro-5-((4′-fluoro-6-(((R)-pyrrolidin-1-ium-3-yl)oxy)-[1,1′-biphenyl]-3-yl)carbamoyl)-[1,1′-biphenyl]-2-yl)oxy) pyrrolidin-1-ium chloride], the inhibition constant (Ki) was determined as 4.08 ± 0.355 µM. The same measure, in the same setting: the figure for `NCCOc1ccc(C(=O)Nc2cccc(-c3ccc(F)cc3)c2)cc1-c1ccc(Cl)c(F)c1` [Compound 14, 2-((4′-Chloro-3′-fluoro-5-((4′-fluoro-[1,1′-biphenyl]-3-yl)carbamoyl)-[1,1′-biphenyl]-2-yl)oxy) ethanaminium chloride] is 74 ± 3.48 µM. `NC(=O)c1cccc(-c2cc(NC(=O)c3ccc(O[C@H]4CCNC4)c(-c4ccc(F)c(F)c4)c3)ccc2O[C@H]2CCNC2)c1` [Compound 91g, N-(3′-carbamoyl-6-((S)-pyrrolidin-3-yloxy)-[1,1′-biphenyl]-3-yl)-3′,4′-difluoro-6-((S)-pyrrolidin-3-yloxy)-[1,1′-biphenyl]-3-carboxamide dihydrochloride]: the inhibition constant (Ki) worked out at 162 ± 8.69 µM. The same measure, in the same setting: with `O=C(Nc1ccc(O[C@H]2CCNC2)c(-c2cccc(-c3nn[nH]n3)c2)c1)c1ccc(O[C@H]2CCNC2)c(-c2ccc(F)c(F)c2)c1` [Compound 91k, 3′,4′-Difluoro-6-((S)-pyrrolidin-3-yloxy)-N-(6-((S)-pyrrolidin-3-yloxy)-3′-(2h-tetrazol-5-yl)-[1,1′-biphenyl]-3-yl)-[1,1′-biphenyl]-3-carboxamide dihydrochloride] the figure was 3.91 ± 0.734 µM; with `Cc1cc(F)ccc1-c1cc(NC(=O)c2ccc(O[C@H]3CCNC3)c(-c3ccc(F)c(F)c3)c2)ccc1O[C@H]1CCNC1` [Compound 91j, 3′,4′-Difluoro-N-(4′-fluoro-2′-methyl-6-((S)-pyrrolidin-3-yloxy)-[1,1′-biphenyl]-3-yl)-6-((S)-pyrrolidin-3-yloxy)-[1,1′-biphenyl]-3-carboxamide dihydrochloride], 27.3 ± 4.83 µM; with `NCCOc1ccc(C(=O)Nc2cccc(-c3ccc(Cl)c(F)c3)c2)cc1-c1ccc(F)cc1` [Compound 11, 2-((5-((4′-Chloro-3′-fluoro-[1,1′-biphenyl]-3-yl)carbamoyl)-4′-fluoro-[1,1′-biphenyl]-2-yl)oxy) ethanaminium chloride], 87.1 ± 4.95 µM. Turning to `Cl.Cl.NCCOc1ccc(NC(=O)c2ccc(OCCN)c(-c3ccc(F)c(F)c3)c2)cc1-c1ccc(F)cc1` [Compound 17, 2-((5-(6-(2-Ammonioethoxy)-3′,4′-difluoro-[1,1′-biphenyl]-3-ylcarboxamido)-4′-fluoro-[1,1′-biphenyl]-2-yl)oxy) ethanaminium chloride], the Ki turned out to be 6.12 ± 1.53 µM. On the same count and under the same terms, the figure for `NCCOc1ccc(C(=O)Nc2cccc(-c3ccc(F)c(F)c3)c2)cc1-c1ccc(F)cc1` [Compound 10, 2-((5-((3′,4′-Difluoro-[1,1′-biphenyl]-3-yl)carbamoyl)-4′-fluoro-[1,1′-biphenyl]-2-yl)oxy) ethanaminium chloride] is 27.7 ± 3.67 µM. On the same count and under the same terms, with `Cc1cccc(-c2cc(NC(=O)c3ccc(O[C@H]4CCNC4)c(-c4ccc(F)c(F)c4)c3)ccc2O[C@H]2CCNC2)c1` [Compound 91b, 3′,4′-Difluoro-N-(3′-methyl-6-((S)-pyrrolidin-3-yloxy)-[1,1′-biphenyl]-3-yl)-6-((S)-pyrrolidin-3-yloxy)-[1,1′-biphenyl]-3-carboxamide dihydrochloride] the figure was 40.8 ± 5.94 µM. The same measure, in the same setting: the figure for `N#Cc1ccc(-c2cc(NC(=O)c3ccc(O[C@H]4CCNC4)c(-c4ccc(F)c(F)c4)c3)ccc2O[C@H]2CCNC2)cc1` [Compound 91f, N-(4′-cyano-6-((S)-pyrrolidin-3-yloxy)-[1,1′-biphenyl]-3-yl)-3′,4′-difluoro-6-((S)-pyrrolidin-3-yloxy)-[1,1′-biphenyl]-3-carboxamide dihydrochloride] is 29.5 ± 5.77 µM.

Take `COC(=O)c1ccc(OCCNC(=O)OC(C)(C)C)c(Br)c1` [Compound 30, Methyl-3-bromo-4-(2-((tert-butoxycarbonyl)amino)ethoxy) benzoate]: the Ki is 156 ± 3.96 µM. For the compound `O=C(Nc1ccc(O[C@H]2CCNC2)c(-c2ccc(F)cc2)c1)c1ccc(O[C@@H]2CCNC2)c(-c2ccc(F)c(F)c2)c1` [Compound 27, (R)-3-((3′,4′-difluoro-5-((4′-fluoro-6-(((S)-pyrrolidin-1-ium-3-yl)oxy)-[1,1′-biphenyl]-3-yl)carbamoyl)-[1,1′-biphenyl]-2-yl)oxy) pyrrolidin-1-ium chloride], the inhibition constant (Ki) worked out at 5.6 ± 0.514 µM. Consider `O=C(Nc1ccc(O[C@@H]2CCNC2)c(-c2ccc(F)cc2)c1)c1ccc(O[C@H]2CCNC2)c(-c2ccc(F)c(F)c2)c1` [Compound 28, (S)-3-((3′,4′-difluoro-5-((4′-fluoro-6-(((R)-pyrrolidin-1-ium-3-yl)oxy)-[1,1′-biphenyl]-3-yl)carbamoyl)-[1,1′-biphenyl]-2-yl)oxy) pyrrolidin-1-ium chloride], for which the Ki was 3.41 ± 0.354 µM. As to `NCCOc1ccc(C(=O)Nc2cccc(-c3ccc(F)cc3)c2)cc1-c1ccsc1` [Compound 15, 2-(4-((4′-Fluoro-[1,1′-biphenyl]-3-yl)carbamoyl)-2-(thiophen-3-yl)phenoxy) ethanaminium chloride], the Ki was determined as 32.4 ± 4.24 µM. Still for that read-out and setting: with `Cl.NCCOc1ccc(C(=O)Nc2cccc(-c3ccc(F)cc3)c2)cc1-c1ccc(F)cc1` [Compound 9, 2-((4′-Fluoro-5-((4′-fluoro-[1,1′-biphenyl]-3-yl)carbamoyl)-[1,1′-biphenyl]-2-yl)oxy) ethanaminium chloride] the figure was 33.6 ± 4.34 µM.
